Reference: patent US20210024545A1, “SUBSTITUTED DIAZAHETERO-BICYCLIC COMPOUNDS AND THEIR USE” (Bayer Aktiengesellschaft, priority 2016, published 2021)

How the values were obtained:
[1] = biological target: human TASK-1 (Homo sapiens, UniProt O14649); experiment: Inhibition of recombinant TASK-1 in stably transfected CHO cells, KCl-induced depolarization, voltage-sensitive dye (B-2); type: cell-based; set-up: expressed in transfected cells; host or cells: stably transfected CHO cells; conditions: depolarization induced by 40 mM potassium chloride, some mean values from multiple determinations
Sequence of human TASK-1 (O14649 whole entry): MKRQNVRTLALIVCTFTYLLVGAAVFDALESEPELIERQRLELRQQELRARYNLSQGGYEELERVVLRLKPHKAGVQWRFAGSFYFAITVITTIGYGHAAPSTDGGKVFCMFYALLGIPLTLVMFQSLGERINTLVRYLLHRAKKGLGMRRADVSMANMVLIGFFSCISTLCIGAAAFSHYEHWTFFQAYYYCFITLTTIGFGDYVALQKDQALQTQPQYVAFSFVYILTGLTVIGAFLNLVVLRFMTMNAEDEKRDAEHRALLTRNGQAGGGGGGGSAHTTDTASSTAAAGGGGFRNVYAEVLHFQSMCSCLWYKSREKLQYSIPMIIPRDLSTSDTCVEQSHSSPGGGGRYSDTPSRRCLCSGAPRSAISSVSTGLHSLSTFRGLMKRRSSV
Procedure: (§1) B-2. Inhibition of Recombinant TASK-1 and TASK-3 In Vitro
(§2) The investigations on the inhibition of the recombinant TASK-1 and TASK-3 channels were conducted using stably transfected CHO cells. The compounds of the invention were tested here with administration of 40 mM of potassium chloride in the presence of a voltage-sensitive dye using the method described in detail in the following references [Whiteaker et al., Validation of FLIPR membrane potential dye for high-throughput screening of potassium channel modulators, J. Biomol. Screen. 6 (5), 305-312 (2001); Molecular Devices FLIPR Application Note: Measuring membrane potential using the FLIPR® membrane potential assay kit on Fluorometric Imaging Plate Reader (FLIPR®) systems, http://www.moleculardevices.com/reagents-supplies/assay-kits/ion-channels/flipr-membrane-potential-assay-kits]. The activity of the test substances was determined as their ability to inhibit a depolarization induced in the recombinant cells by 40 mM potassium chloride. The concentration which can block half of this depolarization is referred to as IC50).
(§3) Table 2 below lists the IC50 values from this assay determined for individual working examples of the invention (some as mean values from multiple independent individual determinations): […]

[2] = biological target: human TASK-3 (Homo sapiens, UniProt Q9NPC2); experiment: Inhibition of recombinant TASK-3 in stably transfected CHO cells, KCl-induced depolarization, voltage-sensitive dye (B-2); type: cell-based; set-up: expressed in transfected cells; host or cells: stably transfected CHO cells; conditions: depolarization induced by 40 mM potassium chloride, some mean values from multiple determinations
Sequence of human TASK-3 (Q9NPC2 whole entry): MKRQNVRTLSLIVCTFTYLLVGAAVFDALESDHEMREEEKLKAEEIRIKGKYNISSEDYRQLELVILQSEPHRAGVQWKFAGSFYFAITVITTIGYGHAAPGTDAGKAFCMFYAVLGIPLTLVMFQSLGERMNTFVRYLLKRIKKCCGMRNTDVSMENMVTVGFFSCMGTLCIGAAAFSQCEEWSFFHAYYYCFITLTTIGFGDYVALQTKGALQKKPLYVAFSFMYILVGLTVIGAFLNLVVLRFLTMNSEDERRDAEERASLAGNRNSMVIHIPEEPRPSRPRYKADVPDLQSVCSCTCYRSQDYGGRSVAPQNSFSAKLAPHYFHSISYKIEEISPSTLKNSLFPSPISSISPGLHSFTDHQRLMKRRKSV
Procedure: as §1, §2, §3

Row | SMILES | IC50 [1] [µM] | IC50 [2] [µM]
1 | O=C(c1ccccc1F)N1CC2CCC1CN2Cc1c(-c2ccc(Br)cc2)nc2ccccn12 (racemic) [Example 152, (5-{[2-(4-Bromophenyl)imidazo[1,2-a]pyridin-3-yl]methyl}-2,5-diazabicyclo[2.2.2]oct-2-yl)(2-fluorophenyl)methanone] | 2.9 | 0.075
2 | CC(C)(C)OC(=O)N1CC2CCC1CN2Cc1c(-c2ccc(Cl)cc2)nc2ccccn12 (single isomer, unassigned) [Example 15, tert-Butyl 5-{[2-(4-chlorophenyl)imidazo[1,2-a]pyridin-3-yl]methyl}-2,5-diazabicyclo[2.2.2]octane-2-carboxylate] | 0.397 | 0.082
3 | CC(C)(C)OC(=O)N1CC2CCC1CN2Cc1c(-c2ccc(Cl)cc2)nc2ccccn12 (single isomer, unassigned) [Example 16, tert-Butyl 5-{[2-(4-chlorophenyl)imidazo[1,2-a]pyridin-3-yl]methyl}-2,5-diazabicyclo[2.2.2]octane-2-carboxylate] | 1.3 | 0.6
4 | O=C(c1ccccc1F)N1CC2CCC1CN2Cc1c(-c2ccc(Cl)cc2)nc2ccccn12 (single isomer, unassigned) [Example 35] | 0.35 | 0.2
5 | O=C(c1ccccc1F)N1CC2CCC1CN2Cc1c(-c2ccc(Cl)cc2)nc2ccccn12 (single isomer, unassigned) [Example 36] | 0.67 | 0.25
6 | O=C(C1CCCC1)N1CC2CCC1CN2Cc1c(-c2ccc(Cl)cc2)nc2ccccn12 (single isomer, unassigned) [Example 37] | 0.35 | 0.063
7 | O=C(C1CCCC1)N1CC2CCC1CN2Cc1c(-c2ccc(Cl)cc2)nc2ccccn12 (single isomer, unassigned) [Example 38] | 0.79 | 0.38
8 | COc1cccc(C(=O)N2CC3CCC2CN3Cc2c(-c3ccc(Cl)cc3)nc3ccccn23)c1 (single isomer, unassigned) [Example 39] | 0.64 | 0.37
9 | COc1cccc(C(=O)N2CC3CCC2CN3Cc2c(-c3ccc(Cl)cc3)nc3ccccn23)c1 (single isomer, unassigned) [Example 40] | 0.533 | 0.104
10 | O=C(c1ccccn1)N1CC2CCC1CN2Cc1c(-c2ccc(Cl)cc2)nc2ccccn12 (single isomer, unassigned) [Example 51] | 0.29 | 0.034
11 | Cc1cccc(C(=O)N2CC3CCC2CN3Cc2c(-c3ccc(Cl)cc3)nc3ccccn23)c1 (single isomer, unassigned) [Example 53] | 0.14 | 0.034
12 | CCOc1cccc(C(=O)N2CC3CCC2CN3Cc2c(-c3ccc(Cl)cc3)nc3ccccn23)c1 (single isomer, unassigned) [Example 54] | 0.47 | 0.076
13 | O=C(c1ccncc1)N1CC2CCC1CN2Cc1c(-c2ccc(Cl)cc2)nc2ccccn12 (single isomer, unassigned) [Example 55] | 2 | 0.32
14 | CC(C)c1ccc(-c2nc3ccccn3c2CN2CC3CCC2CN3C(=O)c2ccccc2F)cc1 (single isomer, unassigned) [Example 57] | 1.4 | 0.24
15 | COc1cccc(C(=O)N2CC3CCC2CN3Cc2c(-c3ccc(C(C)C)cc3)nc3ccccn23)n1 (single isomer, unassigned) [Example 60] |  | 0.61
16 | COc1cccc(C(=O)N2CC3CCC2CN3Cc2c(-c3ccc(C(C)C)cc3)nc3ccccn23)n1 (single isomer, unassigned) [Example 61] | 0.68 | 0.087
17 | CC(C)c1ccc(-c2nc3ccccn3c2CN2CC3CCC2CN3C(=O)C2CCCC2)cc1 (single isomer, unassigned) [Example 62] | 2.8 | 0.76
18 | CC(C)c1ccc(-c2nc3ccccn3c2CN2CC3CCC2CN3C(=O)C2CCCC2)cc1 (single isomer, unassigned) [Example 63] | 0.49 | 0.14
19 | COc1ccc(F)c(C(=O)N2CC3CCC2CN3Cc2c(-c3ccc(Cl)cn3)nc3ccccn23)n1 (single isomer, unassigned) [Example 66] | 1.1 | 0.11
20 | COc1ccc(Cl)c(C(=O)N2CC3CCC2CN3Cc2c(-c3ccc(Cl)cn3)nc3ccccn23)n1 (single isomer, unassigned) [Example 67] | 0.99 | 0.22
21 | COc1ccc(F)c(C(=O)N2CC3CCC2CN3Cc2c(-c3ccc(C(C)C)nc3)nc3ccccn23)n1 (single isomer, unassigned) [Example 127, (3-Fluoro-6-methoxypyridin-2-yl)(5-{[2-(6-isopropylpyridin-3-yl)imidazo[1,2-a]pyridin-3-yl]methyl}-2,5-diazabicyclo[2.2.2]oct-2-yl)methanone] | 9.45 | 0.67
22 | Cc1cccc(Cl)c1NC(=O)N1C2CCC1CN(Cc1c(-c3ccc(Cl)cc3)nc3ccccn13)C2 [Example 165, N-(2-Chloro-6-methylphenyl)-3-{[2-(4-chlorophenyl)imidazo[1,2-a]pyridin-3-yl]methyl}-3,8-diazabicyclo[3.2.1]octane-8-carboxamide] | 0.025 | 
23 | CCOC(=O)N1C2CCC1CN(Cc1c(-c3ccc(Cl)cc3)nc3ccccn13)C2 [Example 185, Ethyl 3-{[2-(4-chlorophenyl)imidazo[1,2-a]pyridin-3-yl]methyl}-3,8-diazabicyclo[3.2.1]octane-8-carboxylate] | 0.12 | 

Continued, values first:

Row | IC50 [1] [µM] | IC50 [2] [µM] | SMILES
24 | 0.072 | 0.0018 | COc1cccc(C(=O)N2CC3CCC2CN3Cc2c(-c3ccc(Br)cc3)nc3ccccn23)n1 (racemic) [Example 151, (5-{[2-(4-Bromophenyl)imidazo[1,2-a]pyridin-3-yl]methyl}-2,5-diazabicyclo[2.2.2]oct-2-yl)(6-methoxypyridin-2-yl)methanone]
25 | 1 | 0.034 | COc1ccc(F)c(C(=O)N2CC3CCC2CN3Cc2c(-c3ccc(Br)cc3)nc3ccccn23)n1 (racemic) [Example 153, (5-{[2-(4-Bromophenyl)imidazo[1,2-a]pyridin-3-yl]methyl}-2,5-diazabicyclo[2.2.2]oct-2-yl)(3-fluoro-6-methoxypyridin-2-yl)methanone]
26 | 0.033 | 0.0018 | COc1ccc(Cl)c(C(=O)N2CC3CCC2CN3Cc2c(-c3ccc(Br)cc3)nc3ccccn23)n1 (racemic) [Example 199, (5-{[2-(4-Bromophenyl)imidazo[1,2-a]pyridin-3-yl]methyl}-2,5-diazabicyclo[2.2.2]oct-2-yl)(3-chlor-6-methoxypyridin-2-yl)methanone(racemate)]
27 | 0.076 | 0.0039 | O=C(c1cc(F)ccc1Cl)N1CC2CCC1CN2Cc1c(-c2ccc(Cl)cc2)nc2ccccn12 (single isomer, unassigned) [Example 41]
28 | 0.88 | 0.017 | O=C(C1CCCCC1)N1CC2CCC1CN2Cc1c(-c2ccc(Cl)cc2)nc2ccccn12 (single isomer, unassigned) [Example 42]
29 | 0.32 | 0.0089 | O=C(C1CCC1)N1CC2CCC1CN2Cc1c(-c2ccc(Cl)cc2)nc2ccccn12 (single isomer, unassigned) [Example 43]
30 | 0.13 | 0.0033 | COc1ccccc1C(=O)N1CC2CCC1CN2Cc1c(-c2ccc(Cl)cc2)nc2ccccn12 (single isomer, unassigned) [Example 44]
31 | 0.34 | 0.013 | COc1ccc(F)cc1C(=O)N1CC2CCC1CN2Cc1c(-c2ccc(Cl)cc2)nc2ccccn12 (single isomer, unassigned) [Example 45]
32 | 0.073 | 0.005 | Cc1ccccc1C(=O)N1CC2CCC1CN2Cc1c(-c2ccc(Cl)cc2)nc2ccccn12 (single isomer, unassigned) [Example 46]
33 | 0.07 | 0.015 | Cc1ccc(F)cc1C(=O)N1CC2CCC1CN2Cc1c(-c2ccc(Cl)cc2)nc2ccccn12 (single isomer, unassigned) [Example 47]
34 | 0.39 | 0.017 | O=C(c1cccc(OC(F)(F)F)c1)N1CC2CCC1CN2Cc1c(-c2ccc(Cl)cc2)nc2ccccn12 (single isomer, unassigned) [Example 48]
35 | 0.74 | 0.012 | O=C(c1cccc(Cl)c1)N1CC2CCC1CN2Cc1c(-c2ccc(Cl)cc2)nc2ccccn12 (single isomer, unassigned) [Example 49]
36 | 0.17 | 0.01 | Cn1ccnc1C(=O)N1CC2CCC1CN2Cc1c(-c2ccc(Cl)cc2)nc2ccccn12 (single isomer, unassigned) [Example 52]
37 | 0.19 | 0.014 | COc1ccc(C)c(C(=O)N2CC3CCC2CN3Cc2c(-c3ccc(C(C)C)cc3)nc3ccccn23)n1 (single isomer, unassigned) [Example 137]
38 | 0.075 | 0.0068 | COc1ccc(C)c(C(=O)N2CC3CCC2CN3Cc2c(-c3ccc(Cl)cc3)nc3ccccn23)n1 (single isomer, unassigned) [Example 138]
39 | 0.17 | 0.013 | COc1ccc(Cl)c(C(=O)N2C[C@@H]3CC[C@H]2CN3Cc2c(-c3ccc(Cl)cc3)nc3ccccn23)n1 (single isomer, unassigned; enantiomer 1) [Example 22]
